Results on 90 compounds are retold here after ChEMBL document CHEMBL3727373, “Phosphoglycerate kinase inhibitors” (2012).

This assay has as its target T1, Phosphoglycerate kinase 1 (Homo sapiens, UniProt P00558).
T1 sequence (P00558 whole entry): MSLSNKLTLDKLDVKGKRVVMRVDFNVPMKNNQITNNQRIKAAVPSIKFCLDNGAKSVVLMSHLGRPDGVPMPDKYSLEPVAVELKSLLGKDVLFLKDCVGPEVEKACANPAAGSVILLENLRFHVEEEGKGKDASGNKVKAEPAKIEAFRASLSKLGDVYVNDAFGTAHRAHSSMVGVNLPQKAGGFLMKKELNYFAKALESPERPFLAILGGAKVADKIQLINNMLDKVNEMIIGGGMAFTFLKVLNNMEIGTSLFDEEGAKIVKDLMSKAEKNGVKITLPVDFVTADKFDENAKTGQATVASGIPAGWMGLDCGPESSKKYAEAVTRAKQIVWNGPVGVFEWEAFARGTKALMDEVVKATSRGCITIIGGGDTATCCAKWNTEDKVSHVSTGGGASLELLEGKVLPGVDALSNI
In words: Inhibition of PGK1 (unknown origin) pre-incubated with enzyme before 3-phosphoglycerate substrate addition and incubated for 30 mins in presence of NADH and ATP by glyceraldehyde P-dehydrogenase coupling based NADH fluorescence assay.
As for `CCCCC#Cc1cc2nc(NCC)c(NCC)nc2cc1Cl`, the IC50 was 0.884 µM.
In the case of `CCNc1nc2cc(O)c(Cl)cc2nc1NCC` it was 0.366 µM; in that of `CCNc1nc2cc(OC)c(Cl)cc2nc1NCCCN1CCCC1`, 0.252 µM.
Under `CCNc1nc2cc(Cl)c(C#CC(N)=O)cc2nc1NCC` stands 0.556 µM; under `CCNc1nc2cc(OC)c(Cl)cc2nc1NC(C)CCCN(CC)CC` (stereo not given), 0.515 µM.
Under `CCNc1nc2cc(OC)c(OC)cc2nc1Br` stands 4.64 µM.
As to `CCNc1nc2cc(Cl)c(C#Cc3cccc(O)c3)cc2nc1NCC`, the half-maximal inhibitory concentration (IC50) stood at 5.7 µM.
With `CCNc1nc2cc(Cl)c(C#CCCN)cc2nc1NCC`, the IC50 is 1.05 µM.
In the case of `CCNc1nc2cc(OC)c(Cl)cc2nc1-c1cnn(C)c1` it was 0.066 µM; in that of `CCNc1nc2cc(OC)c(OC)cc2nc1NC`, 2.53 µM; in that of `CCNc1nc2cc(OC)c(OC)cc2nc1NCc1ccncc1`, 2.01 µM.
In the case of `CCNc1nc2cc(OC)c(OC)cc2nc1Cl` it was 6.32 µM.
In the case of `CCNc1nc2cc(OC)c(OC)cc2nc1NCCCN1CCCC1=O` it was 1.81 µM; in that of `CN1CCN(CCNc2nc3cc(Cl)c(C#N)cc3nc2-c2ccccn2)CC1`, 0.346 µM.
Consider `CN1CCN(CCNc2nc3cc(Cl)c(C#CCCO)cc3nc2NCCN2CCN(C)CC2)CC1`, for which the IC50 worked out at 0.036 µM.
In the case of `CCNc1nc2cc(OC)c(OC)cc2nc1NCc1ccccn1` it was 1.28 µM; in that of `COc1cc2nc(NCc3cccnc3)c(-c3ccncc3)nc2cc1OC`, 7.59 µM.
Turning to `CCNc1nc2cc(Cl)c([N+](=O)[O-])cc2nc1NCC`, the IC50 amounted to 0.098 µM.
Turning to `CCNc1nc2cc(Cl)c(CC(=O)CCC(=O)O)cc2nc1NCC`, the IC50 was found to be 5.83 µM.
Under `CCNc1nc2cc(OC)c(Cl)cc2nc1-c1cn[nH]c1` stands 0.075 µM.
In the case of `CCNc1nc2cc(Cl)c(C#CCCCC#N)cc2nc1NCC` it was 0.57 µM.
`CCNc1nc2cc(OC)c(Cl)cc2nc1-c1ccccc1-c1ccccc1`: the IC50 turned out to be 2 µM.
With `CCNc1nc2cc(Cl)c(C#CC(C)O)cc2nc1NCC` (stereo not given), the IC50 was found to be 0.125 µM.
In the case of `CCNc1nc2cc(OC)c(Cl)cc2nc1-c1cccc(C(=O)NCc2ccccc2)c1` it was 0.55 µM; in that of `CCNc1nc2cc(Cl)c(C#CCCC#N)cc2nc1NCC`, 0.054 µM; in that of `CCNc1nc2cc(OC)c(OC)cc2nc1NCC`, 50 µM.
In the case of `CCNc1nc2cc(Cl)c(C#N)cc2nc1NCc1cccnc1` it was 0.015 µM; in that of `CCNc1nc2cc(OC)c(Cl)cc2nc1-c1cccc(Cl)c1`, 2.1 µM.
In the case of `CCNc1nc2cc(Cl)c(NC(C)=O)cc2nc1NCC` it was 4.14 µM; in that of `CCNc1nc2cc(OC)c(Cl)cc2nc1-c1ccc2c(c1)OCO2`, 2.3 µM.
Consider `CCNc1nc2cc(OC)c(Cl)cc2nc1NCCCN1CCN(C)CC1`, for which the IC50 was 0.195 µM.
In the case of `CCNc1nc2cc(Cl)c(OC(F)(F)F)cc2nc1NCC` it was 1.17 µM; in that of `CCNc1nc2cc(Cl)c(C#CCOC(=O)CC)cc2nc1NCC`, 0.257 µM; in that of `CCNc1nc2cc(OC)c(Cl)cc2nc1-c1cc2ccccc2o1`, 1.4 µM.
Turning to `CCNc1nc2cc(OC)c(Cl)cc2nc1-c1ccc2c(ccn2C)c1`, the IC50 was 0.22 µM.
In the case of `CCNc1nc2cc(Cl)c(C#CCCCCO)cc2nc1NCC` it was 0.385 µM.
In the case of `CCNc1nc2cc(OC)c(OC)cc2nc1-c1ccncc1` it was 6.66 µM; in that of `CCNc1nc2cc(OC)c(Cl)cc2nc1NCCN1CCN(C)CC1`, 0.173 µM; in that of `CCNc1nc2cc(Cl)c(C#CCCN3C(=O)c4ccccc4C3=O)cc2nc1NCC`, 3.16 µM.
Under `COc1cc2nc(NCCCN3CCCC3)c(-c3ccncc3)nc2cc1OC` stands 10 µM; under `CCNc1nc2cc(Cl)c(OC)cc2nc1NCC`, 0.009 µM; under `CCNc1nc2cc(OC)c(Cl)cc2nc1-c1cccc2[nH]ccc12`, 4.4 µM.
As for `CCNc1nc2cc(Cl)c(C#CCO)cc2nc1NCC`, the IC50 turned out to be 0.001 µM.
In the case of `CCNc1nc2cc(OC)c(Cl)cc2nc1-c1cc2ccccc2s1` it was 0.078 µM; in that of `CCNc1nc2cc(C#CCCO)c(Cl)cc2nc1NCCN1CCN(C)CC1`, 0.008 µM; in that of `CCNc1nc2cc(OC)c(Cl)cc2nc1-c1ccc(Cl)cc1`, 1.9 µM.
In the case of `CCNc1nc2cc(OC)c(Cl)cc2nc1-c1cccc(C(=O)NCc2ccco2)c1` it was 0.21 µM; in that of `CCNc1nc2cc(OC)c(Cl)cc2nc1-c1ccc2occc(=O)c2c1`, 1.6 µM; in that of `CCNc1nc2cc(Cl)c(-c3noc(CCO)n3)cc2nc1NCC`, 0.596 µM.
In the case of `CCNc1nc2cc(Cl)c(C#CCCCO)cc2nc1NCC` it was 0.042 µM; in that of `CCNc1nc2cc(OC)c(Cl)cc2nc1Cl`, 1.18 µM; in that of `CCNc1nc2cc(OC)c(Cl)cc2nc1-c1csc2ccccc12`, 2 µM.
In the case of `CCNc1nc2cc(Cl)c(C#N)cc2nc1NCCN1CCN(C)CC1`, the IC50 turned out to be 0.071 µM.
In the case of `CCNc1nc2cc(Cl)c(CC(=O)CCC(=O)OC)cc2nc1NCC`, the IC50 turned out to be 9 µM.
Under `CCNc1nc2cc(Cl)c(NC(=O)CCO)cc2nc1NCC` stands 1.09 µM; under `CCNc1nc2cc(OC)c(Cl)cc2nc1-c1cnn(Cc2ccccc2)c1`, 0.091 µM; under `CCNc1nc2cc(OC)c(Cl)cc2nc1-c1cccs1`, 0.19 µM.
Under `CCNc1nc2cc(Cl)c(C#CCCO)cc2nc1NCC` stands 0.005 µM.
For `CCNc1nc2cc(Cl)c(C#CC3CC3)cc2nc1NCC`, the IC50 was 0.019 µM.
For `CCNc1nc2cc(Cl)c(C#N)cc2nc1NCC`, the IC50 stood at 0.038 µM.
Under `CCNc1nc2cc(OC)c(Cl)cc2nc1NCc1cccnc1` stands 0.129 µM; under `CCNc1nc2cc(Cl)c(C#Cc3ccoc3)cc2nc1NCC`, 1.03 µM; under `CCNc1nc2cc(Cl)c(C#CCOCCO)cc2nc1NCC`, 0.103 µM.
For the compound `CNc1nc2cc(OC)c(OC)cc2nc1Cl`, the IC50 was 24 µM.
Under `CCNc1nc2cc(Cl)c(C#CCOC)cc2nc1NCC` stands 0.066 µM; under `CCNc1nc2cc(OC)c(OC)cc2nc1NCc1cccnc1`, 0.71 µM.
In the case of `CCNc1nc2cc(OC)c(Cl)cc2nc1-c1cccc2ccccc12` it was 10 µM; in that of `CCNc1nc2cc(Cl)c(C#CC(=O)OC)cc2nc1NCC`, 0.633 µM.
Consider `CCNc1nc2cc(Cl)c(C#CCNC(N)=O)cc2nc1NCC`, for which the IC50 is 0.393 µM.
Under `CCNc1nc2cc(OC)c(Cl)cc2nc1-c1cccc(C(N)=O)c1` stands 0.24 µM; under `C#Cc1cc2nc(NCC)c(NCC)nc2cc1Cl`, 0.012 µM.
Under `CCNc1nc2cc(C#CCCO)c(Cl)cc2nc1C#CCCO` stands 0.665 µM; under `CCNc1nc2cc(C#CCCO)c(Cl)cc2nc1NCCCN1CCN(C)CC1`, 0.016 µM.
For `CCNc1nc2cc(Cl)c(N3CC(CCO)C3)cc2nc1NCC`, the IC50 stood at 10 µM.
Under `CCNc1nc2cc(OC)c(OC)cc2nc1NCCc1ccncc1` stands 0.741 µM; under `CCNc1nc2cc(Cl)c(C#CC(C)(C)O)cc2nc1NCC`, 2.69 µM.
In the case of `CCC#Cc1cc2nc(NCC)c(NCC)nc2cc1Cl` it was 0.27 µM; in that of `CCNc1nc2cc(Cl)c(C#CC(C)(O)CC)cc2nc1NCC` (stereo not given), 4.81 µM.
In the case of `CCNc1nc2cc(Cl)c(C#CCC(C)O)cc2nc1NCC` (stereo not given) it was 0.122 µM; in that of `C#CCOc1cc2nc(NCC)c(NCC)nc2cc1Cl`, 0.32 µM.
Regarding `CCNc1nc2cc(C#CCCO)c(Cl)cc2nc1Cl`, the IC50 stood at 0.041 µM.
Under `CCNc1nc2cc(OC)c(Cl)cc2nc1-c1cccc2ncccc12` stands 1.4 µM; under `CCNc1nc2cc(OC)c(Cl)cc2nc1-c1ccc(N2CCN(C(=O)OC(C)(C)C)CC2)nc1`, 1.7 µM.
Under `CCNc1nc2cc(OC)c(Cl)cc2nc1-c1ccc(C(C)=O)s1` stands 1.1 µM; under `CCNc1nc2cc(OC)c(Cl)cc2nc1-c1cnc2ccccc2c1`, 4.6 µM; under `CCNc1nc2cc(OC)c(OC)cc2nc1NCCc1ccccn1`, 0.84 µM.
In the case of `CCCC(O)C#Cc1cc2nc(NCC)c(NCC)nc2cc1Cl` (stereo not given) it was 2 µM.
In the case of `COc1cc2nc(Br)c(NCCN3CCN(C)CC3)nc2cc1OC`, the IC50 came out at 16.4 µM.
In the case of `CCNc1nc2cc(OC)c(Cl)cc2nc1-c1cncc2ccccc12` it was 1.5 µM; in that of `CCNc1nc2cc(OC)c(OC)cc2nc1NCCCN1CCCC1`, 4.36 µM.

One may read the IC50 as the concentration at which inhibition is half-maximal.
